Test results taken from patent publication US20050148505A1, “Genes and agents to regulate follicular development, ovulation cycle and steriodogenesis” (priority 2003, published 2005).

What was measured:
CTBP mRNA = CTBP mRNA expression in primary granulosa cell culture by semi-quantitative RT-PCR; type: cell-based, rat; details: 6 h; for CTBP mRNA level, inhibitor alone in the absence of FSH: CHX 10 μg/ml or α-amanitin 30 μg/ml, compared to control
Description: FIG. 3. CTBP mRNA expression in primary granulosa cell culture. Granulosa cells were isolated from the ovaries of 24 day old immature rat primed with 17β-estradiol. The cells were cultured in the presence of 30 ng/ml FSH for up to 48 h, and RNA was extracted and amplified for CTBP using quantitative RT-PCR. In addition, L-19 mRNA was probed as an internal control. The CTBP values were normalized with the corresponding values of L-19 and two independent experimental values were averaged.
FIG. 5. Effects of cycloheximide and α-amanitin treatment on the FSH/forskolin-induced expression of CTBP mRNA. Granulosa cells were isolated from 17β-estradiol primed 24-day old immature rat ovaries and cultured with FSH (30 ng/ml) or forskolin (10 μM, FSK) in the presence or absence of cycloheximide (10 μg/ml, CHX) or α-amanitin (30 μg/ml, AMA) for the 6 h. CHX, a translation inhibitor, and AMA, a transcription inhibitor, were pretreated to the cell cultures one hour before hormone treatment. Total RNA was isolated and analyzed for CTBP and L-19 mRNA by semi-quantitative RT-PCR assay using 23 cycles for CTBP and 20 cycles for L-19. L-19 was used as an internal control. Values shown are the range of two independent experiments along with the mean, indicated by bars.
For granulosa cell culture, immature rats were daily injected sub cutaneously with 1.5 mg of 17β-estradiol at 21, 22 and 23 days of age. […] After cells were washed three times in 4F, they were plated on serum-coated, 6-well plates at a density of ˜1×10^6 cells per […] and incubated in the humidified atmosphere of 5% CO2 at 37 C. After 16 h, FSH (30 ng/ml) or forskolin (10 μM) was added to the cultures. For the inhibition of protein synthesis or transcription, cycloheximide (10 μg/ml) or α-amanitin (30 μg/ml) was added, respectively, 1 h before hormone treatment.
RT-PCR was performed as previously described (Ko et al. 1999 Endocrinology 140:5185-519411). Total RNA (1-2 μg) was reverse-transcribed at 37° C. in 20 μl using random hexamer (500 ng) and MMLV reverse transcriptase (10 units) (New England BioLabs, Boston, Mass.). Complementary DNA (cDNA) in 2 μl was added for a total 25 μl reaction mixture containing the primers (200 ng each), 0.4 mM dNTP mixture, and Taq DNA polymerase (2.5 U) in 1×PCR buffer (10 mM Tris, pH 8.3, 50 mM KCl, 1.5 mM MgCl2, 0.01% gelatin). All PCR amplifications were carried out for 20, 25, 30 cycles on a MJ research Minicycler (MJ Research, MA). PCR products were separated by 2% agarose gel electrophoresis, stained with SYBR® Green I (Molecular Probes), and visualized on a phosphoimager. The primers were 5′-ctg act ggc gag aac tgg atg-3′SEQ ID NO. 1) and 5′-aca gta tgc agg ctt cgc tcc-3′ (SEQ ID NO. 2) for 160 bp CTBP, 5′-gct ttc cct ctg ttg acc cac-3′(SEQ ID NO. 3) and 5′-aga tgt tga ggg cag ctc gat-3′(SEQ ID NO. 4) for 255 bp inhibin α, 5′-ctg aag gtc aaa ggg aat gtg-3′ (SEQ ID NO. 5) and 5′-gga cag agt ctt gat gat ctc-3′ (SEQ ID NO. 6) for 194 bp L-19 as an internal control.

granulosa cells = test: Estrogen production by granulosa cells, assayed in culture media; type: cell-based; details: for FSH-induced estrogen production: FSH pre-treated granulosa cells
Description: FIG. 7. Effects of T3 hormone on estrogen production. (A) Granulosa cells were treated with increasing concentrations of FSH and the culture media were assayed for estrogen production. (B) Granulosa cells that were pre-treated with FSH were treated with T3 for varying time periods, 0-4 days. The culture media were assayed for estrogen. (C) Granulosa cells were treated with none, thyroid hormone T3, FSH, or FSH and T3 combo for 3 or 5 days. The culture media were assayed for estrogen production. […] The culture media were assayed for estrogen production.

Row | Compound | CTBP mRNA level, inhibitor alone in the absence of FSH (CTBP mRNA) | CTBP mRNA expression, co-treatment with FSH (CTBP mRNA; α-amanitin 30 μg/ml plus FSH 30 ng/ml) | FSH-induced estrogen synthesis (granulosa cells; FSH and T3 combo for 3 or 5 days) | FSH-induced estrogen production (granulosa cells; T3 by day 4) | FSH-induced estrogen production (granulosa cells; T3 within 24 h) | hCG-dependent estrogen production (granulosa cells; hCG and T3 combo for 3 or 5 days) | FSH-dependent decrease in CTBP mRNA in the presence of inhibitor (CTBP mRNA; CHX 10 μg/ml added 1 h before FSH 30 ng/ml, compared with absence of CHX) | forskolin-induced reduction of CTBP mRNA level in the presence of inhibitor (CTBP mRNA; cycloheximide 10 μg/ml plus forskolin 10 μM)
1 | CC[C@H](C)[C@@H]1NC(=O)CNC(=O)[C@@H]2Cc3c([nH]c4cc(O)ccc34)[S+]([O-])C[C@@H](NC(=O)CNC1=O)C(=O)N[C@@H](CC(N)=O)C(=O)N1C[C@H](O)C[C@H]1C(=O)N[C@@H]([C@@H](C)[C@@H](O)CO)C(=O)N2 (stereo in doubt) [α-amanitin] | did not significantly impact the expression level | completely abolished |  |  |  |  |  | 
2 | N[C@@H](Cc1cc(I)c(Oc2ccc(O)c(I)c2)c(I)c1)C(=O)O [T3] |  |  | suppresses | completely blocked | suppressed | stimulates |  | 
3 | C[C@@H]1C[C@@H]([C@H](O)CC2CC(=O)NC(=O)C2)C(=O)[C@@H](C)C1 [cycloheximide] | increased the CTBP mRNA level |  |  |  |  |  | significantly less | partially prevented
